# Reference: patent publication US11439618B2, “Compositions and methods for lowering triglycerides” (Amarin Pharmaceuticals Ireland Limited, priority 2009, dated 2022)
# Test system: subjects with Age-Associated Memory Impairment
# Assay: CDR computerized cognitive test battery, 6-week study in Age-Associated Memory Impairment
# Type: in vivo, human
# Settings: for Quality of Episodic Secondary Memory, LS mean difference vs placebo: overall; for Self-Rated Contentment, ANCOVA: p<0.001
# Procedure: A single-center, 6-week, double-blind, randomizes, parallel-group, placebo-controlled, dose-ranging pilot study was performed to evaluate the efficacy, tolerability, and safety of >96% ethyl-EPA in subjects with subjective and objective memory impairment according to generally accepted criteria for Age-Associated Memory Impairment (“AAMI”). The primary objective of the study was to determine the effect of >96% ethyl-EPA 1 g, 2 g, and 4 g daily, compared to placebo, on cognitive performance in subjects with AAMI.
# The population for this study was men and women between ages 50 and 70 with self-reported complaints of memory loss, subjective and objective cognitive impairment with a score of at least one standard deviation below that of the mean for age-matched elderly population as determined by the total score of between 13 and 20 from the Paired Associated Learning (“PAL”) subset of the Wechsler Memory Scale, evidence of adequate intellectual function as determined by a scaled score of at least 9 (raw score of at least 32) on the Vocabulary subtest of the Wechsler Adult Intelligence Scale and absence of dementia as determined by a score of 24 or higher on the Mini-Mental State Examination (“MMSE”).
# Ninety-four subjects were randomized into one of six groups: 1 g E-EPA daily (n=23), 2 g E-EPA daily (n=24), 4 g E-EPA daily (n=24), 1 g placebo daily (n=7), 2 g placebo daily (n=8), and 4 g placebo daily (n=8). E-EPA was provided as 500 mg soft gel capsules containing >96% E-EPA and 0.2% dl-α-tocopherol as an antioxidant. Placebo capsules contained 467 mg of liquid paraffin and 0.2% dl-a-tocopherol. Ninety-one subjects completed the study. Two subjects in the 2 g E-EPA group and one subject in the 2 g placebo group discontinued the study.
# The study consisted of a screening visit, a training visit, and four study visits. At the screening visit, subjects' eligibility was determined through cognitive tests (verbal paired associated learning [PAL] subscale, vocabulary subtest, Memory Assessment Clinics Questionnaire [MAC-Q], mini mental state evaluation [MMSE] and MINI [mini international neuropsychiatric interview; sections 1 and 2 of Diagnostic and Statistical Manual of Mental Disorders, 4th Edition (DSM-IV) plus dysthymia]), haematology, clinical chemistry and 12-lead electrocardiogram (ECG). At the training visit, subjects were shown how to use the CDR computerized system. Subjects took study drug for 6 weeks and on Days 0, 14, 28 and 42, subjects underwent the CDR cognitive test battery.
# A selection of tasks from the CDR computerized cognitive assessment system were administered at Visit 2 (training visit), Visit 3 (baseline), Visit 4 (Day 14), Visit 5 (Day 28) and Visit 6 (Day 42). Parallel forms of the tests were presented at each testing session. All tasks were computer-controlled, the information presented on high resolution monitors, and the responses recorded via a response model containing two buttons: one marked ‘no’ and the other ‘yes’. Five CDR composite scores were used as the primary/secondary outcome variables. The task titles were: • Word Presentation • Immediate Word Recall • Picture Presentation • Simple Reaction Time • Digit Vigilance • Choice Reaction Time • Spatial Working Memory • Numeric Working Memory • Delayed Word Recall • Word Recognition • Picture Recognition • Bond-Lader Visual Analogue Scales of Mood and Alertness • Screen, Using the Computer Mouse
# Summary statistics were provided for the ITT and Study Per Protocol Populations separately for all composite scores, major and supportive variables. Summary statistics were performed for both the unadjusted and difference from baseline data (i.e. the difference from the time matched predose assessments on Day 0). Summary statistics were calculated by treatment, day and time-point. The summary statistics comprised n, mean, median, SD, standard error of mean (“SEM”), minimum and maximum values. […]
structure (smiles),measurement,setting,value
"CC/C=C\C/C=C\C/C=C\C/C=C\C/C=C\CCCC(=O)OCC [Ethyl-EPA, all-cis eicosa-5,8,11,14,17-pentaenoic acid ethyl ester]","Continuity of Attention and Digit Vigilance Targets Detected, effect of treatment",ITT,no statistically significant effect of treatment
same,"Immediate and Delayed Word Recall Accuracies, Word and Picture Recognition Sensitivity Indices, effect of treatment",ITT,no statistically significant effects of treatment
same,"Quality of Episodic Secondary Memory, effect of treatment",ITT,no statistically significant effect of treatment
same,"Self-Rated Alertness, effect of treatment",ITT,no statistically significant effect of treatment
same,"Self-Rated Calmness, effect of treatment",ITT,no statistically significant effect of treatment
same,"Self-Rated Contentment, LS mean difference to placebo",ITT,no statistically significant effects
same,"Simple Reaction Time and Digit Vigilance Speed, effect of treatment",ITT,no statistically significant effects of treatment
same,"Speed of Memory and subtasks Spatial and Numeric Working Memory Speeds, Word and Picture Recognition Speeds, effect of treatment",ITT,no statistically significant effects of treatment
same,"Power of Attention, effect of treatment","ITT, 1, 2, 4 g daily vs placebo, ANCOVA",no statistically significant effect of treatment
same,"Immediate Word Recall Accuracy, LS mean difference vs placebo","ITT, 1 g, Day 14, p=0.028",statistically significant decreases
same,"Picture Recognition Speed, difference vs placebo","ITT, 1 g, Day 14 at AM 2, p=0.084",trends for benefits
same,"Immediate Word Recall Accuracy, LS mean difference vs placebo","ITT, 1 g, Day 14 at PM 2, p=0.020",statistically significant decreases
same,"Word Recognition Sensitivity Index, LS mean difference vs placebo","ITT, 1 g, Day 28, p=0.024",statistically significant decreases
same,"Picture Recognition Speed, difference vs placebo","ITT, 1 g, Day 28 at AM 1, p=0.085",trends for benefits
same,"Picture Recognition Sensitivity Index, LS mean difference vs placebo","ITT, 1 g, Day 28 at AM 2, p=0.017",statistically significant decrease
same,"Picture Recognition Sensitivity Index, LS mean difference vs placebo","ITT, 1 g, Day 28 at PM 2, p=0.040",statistically significant decrease
same,"Immediate Word Recall Accuracy, LS mean difference vs placebo","ITT, 1 g, at AM 1, p=0.040",statistically significant decreases
same,"Quality of Episodic Secondary Memory, LS mean difference vs placebo","ITT, 1 g, p=0.040",statistically significant decreases
same,"Immediate Word Recall Accuracy, LS mean difference vs placebo","ITT, 2 g, Day 28, p=0.017",statistically significant decreases
same,"Self-Rated Alertness, LS mean difference vs placebo","ITT, 2 g, Day 28, p=0.047",statistically significant decrease in ratings
same,"Immediate Word Recall Accuracy, LS mean difference vs placebo","ITT, 2 g, Day 28 at AM 1, p=0.006",statistically significant decreases
same,"Self-Rated Alertness, LS mean difference vs placebo","ITT, 2 g, Day 28 at AM 2, p=0.041",statistically significant decrease in ratings
same,"Immediate Word Recall Accuracy, LS mean difference vs placebo","ITT, 2 g, at AM 1, p=0.028",statistically significant decreases
same,"Quality of Episodic Secondary Memory, LS mean difference vs placebo","ITT, 2 g, p=0.035",statistically significant decreases
same,"Spatial Working Memory Speed, LS mean difference vs placebo","ITT, 4 g, Day 14 at PM 1, p=0.048",statistically significant benefit
same,"Word Recognition Sensitivity Index, LS mean difference vs placebo","ITT, 4 g, Day 28 at PM 2, p=0.030",statistically significant decrease
same,"Word Recognition Sensitivity Index, LS mean difference vs placebo","ITT, 4 g, Day 42, p=0.038",statistically significant decreases
same,"Spatial Working Memory Speed, LS mean difference vs placebo","ITT, 4 g, Day 42 at AM 1, p=0.061",trend for a benefit
same,"Word Recognition Sensitivity Index, LS mean difference vs placebo","ITT, 4 g, at PM 2, p=0.045",statistically significant decrease
same,"Power of Attention, LS mean difference active treatment vs placebo","ITT, any time-point",no LS mean difference
same,"Self-Rated Contentment, ANCOVA",ITT,statistically significant treatment by day interaction
same,"Choice Reaction Time, ANCOVA","ITT, p=0.011",statistically significant treatment by day interaction
same,"Spatial Working Memory Sensitivity Index, ANCOVA","ITT, p=0.015",statistically significant treatment by day interaction
same,"Quality of Working Memory, ANCOVA","ITT, p=0.019",statistically significant treatment by day interaction
same,"Numeric Working Memory Sensitivity Index, ANCOVA","ITT, p=0.089",statistical trend for a treatment by day interaction
same,"Continuity of Attention, effect of treatment",Study Per Protocol,no statistically significant effect of treatment
same,"Digit Vigilance Targets Detected, ANCOVA","Study Per Protocol, p=0.040",statistically significant treatment by time-point interaction
same,"Immediate and Delayed Word Recall Accuracies, Word and Picture Recognition Sensitivity Indices, effect of treatment",Study Per-Protocol,no statistically significant effects of treatment
same,"Power of Attention, effect of treatment",Study Per-Protocol,no statistically significant effect of treatment
same,"Quality of Episodic Secondary Memory, effect of treatment",Study Per-Protocol,no statistically significant effects of treatment
same,"Self-Rated Alertness, effect of treatment",Study Per-Protocol,no statistically significant effect of treatment
same,"Self-Rated Calmness, effect of treatment",Study Per-Protocol,no statistically significant effect of treatment
same,"Self-Rated Contentment, LS mean difference to placebo",Study Per-Protocol,no statistically significant effects
same,"Simple Reaction Time and Digit Vigilance Speed, effect of treatment",Study Per-Protocol,no statistically significant effects of treatment
same,"Speed of Memory and subtasks Spatial and Numeric Working Memory Speed, Word and Picture Recognition Speed, effect of treatment",Study Per-Protocol,no statistical significant effects of treatment
same,"Immediate Word Recall Accuracy, LS mean difference to placebo","Study Per-Protocol, 1 g, Day 14, p=0.024",statistically significant decreases
same,"Immediate Word Recall Accuracy, LS mean difference to placebo","Study Per-Protocol, 1 g, Day 14 at PM 2, p=0.019",statistically significant decreases
same,"Word Recognition Sensitivity Index, LS mean difference to placebo","Study Per-Protocol, 1 g, Day 28, p=0.027",statistically significant decreases
same,"Picture Recognition Sensitivity Index, LS mean difference vs placebo","Study Per-Protocol, 1 g, Day 28 at AM 2, p=0.020",statistically significant decreases
same,"Picture Recognition Sensitivity Index, LS mean difference vs placebo","Study Per-Protocol, 1 g, Day 28 at PM 2, p=0.026",statistically significant decreases
same,"Immediate Word Recall Accuracy, LS mean difference to placebo","Study Per-Protocol, 1 g, at AM 1, p=0.038",statistically significant decreases
same,"Immediate Word Recall Accuracy, LS mean difference to placebo","Study Per-Protocol, 1 g, at AM 2, p=0.048",statistically significant decreases
same,"Quality of Episodic Secondary Memory, LS mean difference vs placebo","Study Per-Protocol, 1 g, p=0.043",statistically significant decreases
same,"Immediate Word Recall Accuracy, LS mean difference to placebo","Study Per-Protocol, 2 g, Day 28, p=0.017",statistically significant decreases
same,"Self-Rated Alertness, LS mean difference vs placebo","Study Per-Protocol, 2 g, Day 28, p=0.035",statistically significant decrease in ratings
same,"Immediate Word Recall Accuracy, LS mean difference to placebo","Study Per-Protocol, 2 g, Day 28 at AM 1, p=0.006",statistically significant decreases
same,"Self-Rated Alertness, LS mean difference vs placebo","Study Per-Protocol, 2 g, Day 28 at AM 2, p=0.033",statistically significant decrease in ratings
same,"Immediate Word Recall Accuracy, LS mean difference to placebo","Study Per-Protocol, 2 g, at AM 1, p=0.029",statistically significant decreases
same,"Quality of Episodic Secondary Memory, LS mean difference vs placebo","Study Per-Protocol, 2 g, p=0.036",statistically significant decreases
same,"Word Recognition Sensitivity Index, LS mean difference to placebo","Study Per-Protocol, 4 g, Day 42, p=0.038",statistically significant decreases
same,"Self-Rated Calmness, LS mean difference vs placebo","Study Per-Protocol, 4 g, Day 42 at PM 1, p=0.071",statistical trend for an increase in ratings
same,"Power of Attention, difference active treatment vs placebo","Study Per-Protocol, any time-point",no difference between active treatment and placebo
same,"Self-Rated Contentment, ANCOVA",Study Per-Protocol,statistically significant treatment by day interaction
same,"Choice Reaction Time, ANCOVA","Study Per-Protocol, p=0.013",statistically significant treatment by day interaction
same,"Spatial Working Memory Sensitivity Index, ANCOVA","Study Per-Protocol, p=0.014",statistically significant treatment by day interaction
same,"Quality of Working Memory, ANCOVA","Study Per-Protocol, p=0.021",statistically significant treatment by day interaction
same,"Continuity of Attention, post-hoc vs corresponding placebo",post-hoc,no general pattern of effects
same,"Quality of Working Memory and Numeric Working Memory Sensitivity Index, post-hoc vs corresponding placebo",post-hoc,only isolated improvements and declines in performance
same,"Self-Rated Calmness, post-hoc vs corresponding placebo",post-hoc,no differences between active treatment and placebo
same,"Self-rated Alertness and Self-rated Contentment, post-hoc vs corresponding placebo","post-hoc, 1 g, Days 14 and 28",decreases in ratings
same,"Choice Reaction Time, post-hoc vs corresponding placebo","post-hoc, 4 g, Day 42",superior to placebo at every time point
same,"Power of Attention, post-hoc vs corresponding placebo","post-hoc, 4 g, Day 42",overall benefit versus the corresponding placebo
same,"Spatial Working Memory Sensitivity Index, post-hoc vs corresponding placebo","post-hoc, 4 g, Day 42, Study PP Population",overall benefit
same,"Simple Reaction Time, post-hoc vs corresponding placebo","post-hoc, 4 g, PM 2 collapsed across days, several time-points Days 14 and 42",improvements in performance
same,"Choice Reaction Time, post-hoc vs corresponding placebo","post-hoc, 4 g, all study days",overall benefit versus corresponding placebo
same,"Quality of Episodic Secondary Memory and contributing subtasks, post-hoc vs corresponding placebo","post-hoc, explained by pre-existing group differences",a number of decreases
same,"Speed of Memory subtask measures, post-hoc vs corresponding placebo","post-hoc, mostly 1 g",some signs of improvement in performance
